# Measurements reported in paper PMC5100001, “Defining the extreme substrate specificity of Euonymus alatus diacylglycerol acetyltransferase, an unusual membrane-bound O-acyltransferase” (Bioscience Reports, 2016).
# Target: T1, EaDAcT (Euonymus alatus diacylglycerol acetyltransferase) (Euonymus alatus, UniProt D6NSS8)
# T1 construct: gene DAcT; full-length ORF in microsomes of S. cerevisiae H1246 (quadruple knockout); C-terminal HA tag printed for the pESC-URA coexpression construct; N-terminus MDAHQEIK translated from printed primer
# Experiment: microsomal acyltransferase assay, ESI-MS quantification of sn-3 acyl TAG
# Format: biochemical
# Settings: acyl donor 50 to 1500 uM, endogenous sn-1,2-DAG as acceptor, pH 7.5, 30 C
# T1 sequence (D6NSS8 entry or part of it): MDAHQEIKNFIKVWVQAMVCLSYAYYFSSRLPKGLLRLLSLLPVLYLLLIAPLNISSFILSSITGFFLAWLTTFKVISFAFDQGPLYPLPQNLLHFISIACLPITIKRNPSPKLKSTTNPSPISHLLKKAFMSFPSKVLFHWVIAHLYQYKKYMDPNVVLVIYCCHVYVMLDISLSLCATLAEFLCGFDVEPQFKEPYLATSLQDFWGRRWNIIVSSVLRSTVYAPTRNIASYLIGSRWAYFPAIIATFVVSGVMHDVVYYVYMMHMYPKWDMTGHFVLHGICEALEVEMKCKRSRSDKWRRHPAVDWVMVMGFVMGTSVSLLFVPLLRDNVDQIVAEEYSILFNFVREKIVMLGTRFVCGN
SMILES,"microsomal acyltransferase assay, ESI-MS quantification of sn-3 acyl TAG ([1,2-13C] labelled compound)","microsomal acyltransferase assay, ESI-MS quantification of sn-3 acyl TAG (unlabelled)"
CC(=O)SCCNC(=O)CCNC(=O)[C@H](O)C(C)(C)COP(=O)(O)OP(=O)(O)OC[C@H]1O[C@@H](n2cnc3c(N)ncnc32)[C@H](O)[C@@H]1OP(=O)(O)O [acetyl-CoA],higher rates of production formation were always achieved with acetyl-CoA compared with butyryl- or hexanoyl-CoA,–
CCCC(=O)SCCNC(=O)CCNC(=O)[C@H](O)C(C)(C)COP(=O)(O)OP(=O)(O)OC[C@H]1O[C@@H](n2cnc3c(N)ncnc32)[C@H](O)[C@@H]1OP(=O)(O)O [butyryl-CoA],–,Reaction rates with butyryl-CoA and hexanoyl-CoA were relatively similar to one another
